Measurements taken from ChEMBL document CHEMBL2074051, “Ranking of P-glycoprotein substrates and inhibitors by a calcein-AM fluorometry screening assay” (Anticancer Drugs, 1996).
Non-standard residues stand in square brackets, D forms with d. Residues, ends and D or L forms follow the SMILES beside them. *: point of attachment. NMeI = CC[C@H](C)[C@H](NC)C(=O)O; NMeD = CN[C@@H](CC(=O)O)C(=O)O; NMeV = CN[C@H](C(=O)O)C(C)C; Pip = O=C(O)[C@@H]1CCCCN1; dLac = C[C@@H](O)C(=O)O; OtBu = CC(C)(C)O*

Tests used:
Assay type in all cases: functional, cell-based
[1] = molecular target: T1, ATP-dependent translocase ABCB1 (P-glycoprotein) (Homo sapiens, UniProt P08183); assay: (§1) TP_TRANSPORTER: increase in Calcein-AM intracellular accumulation (Calcein-AM: 0.25 uM) in MDR-CEM cells; details: human, MDR-CEM cells, probe Calcein-AM
T1 sequence (P08183 whole entry): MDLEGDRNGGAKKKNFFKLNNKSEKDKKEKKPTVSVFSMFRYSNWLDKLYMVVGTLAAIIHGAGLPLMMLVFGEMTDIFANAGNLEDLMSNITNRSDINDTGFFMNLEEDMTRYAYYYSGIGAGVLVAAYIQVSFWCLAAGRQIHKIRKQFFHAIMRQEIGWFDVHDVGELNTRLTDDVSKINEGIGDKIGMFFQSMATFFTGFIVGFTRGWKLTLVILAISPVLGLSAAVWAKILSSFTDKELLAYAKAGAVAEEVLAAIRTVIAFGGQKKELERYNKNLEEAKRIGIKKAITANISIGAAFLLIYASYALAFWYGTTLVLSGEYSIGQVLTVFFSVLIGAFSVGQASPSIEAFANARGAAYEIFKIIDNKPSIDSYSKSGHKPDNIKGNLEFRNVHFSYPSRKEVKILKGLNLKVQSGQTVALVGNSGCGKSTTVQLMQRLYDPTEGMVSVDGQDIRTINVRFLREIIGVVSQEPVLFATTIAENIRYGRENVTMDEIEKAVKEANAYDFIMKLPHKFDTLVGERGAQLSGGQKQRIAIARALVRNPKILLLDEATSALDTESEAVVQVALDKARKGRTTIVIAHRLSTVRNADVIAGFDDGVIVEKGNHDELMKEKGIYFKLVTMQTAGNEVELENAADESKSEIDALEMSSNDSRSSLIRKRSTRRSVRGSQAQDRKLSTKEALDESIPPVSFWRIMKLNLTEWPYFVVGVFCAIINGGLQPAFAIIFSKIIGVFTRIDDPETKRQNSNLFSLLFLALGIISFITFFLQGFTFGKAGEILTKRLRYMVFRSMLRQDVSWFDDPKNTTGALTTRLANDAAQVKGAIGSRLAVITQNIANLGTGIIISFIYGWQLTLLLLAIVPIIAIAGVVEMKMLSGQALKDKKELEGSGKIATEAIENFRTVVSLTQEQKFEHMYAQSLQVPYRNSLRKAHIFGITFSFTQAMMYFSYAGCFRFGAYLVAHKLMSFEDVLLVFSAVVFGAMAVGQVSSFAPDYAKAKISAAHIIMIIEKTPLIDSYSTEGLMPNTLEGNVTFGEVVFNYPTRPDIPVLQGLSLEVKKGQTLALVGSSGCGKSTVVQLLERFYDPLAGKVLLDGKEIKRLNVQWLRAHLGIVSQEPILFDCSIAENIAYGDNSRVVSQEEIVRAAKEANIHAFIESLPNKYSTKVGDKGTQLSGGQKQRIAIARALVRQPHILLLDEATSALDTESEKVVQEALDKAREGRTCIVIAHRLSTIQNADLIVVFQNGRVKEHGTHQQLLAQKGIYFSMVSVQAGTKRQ

[2] = molecular target: T1, ATP-dependent translocase ABCB1 (P-glycoprotein); assay: TP_TRANSPORTER: increase in Calcein-AM intracellular accumulation (Calcein-AM: 0.25 uM) in MDR-P388 cells; details: mouse, probe Calcein-AM
[3] = molecular target: ATP-dependent translocase ABCB1 (Homo sapiens, UniProt P08183); assay: as §1
ATP-dependent translocase ABCB1, sequence (P08183 whole entry): as above

EC50 [1] [nM] | EC50 [2] [nM] | EC50 [3] [nM] | Structure (SMILES)
220 | 60 |  | CC[C@H](C)[C@H]1C(=O)NCC(=O)N(C)[C@@H](C(C)C)C(=O)N[C@@H](Cc2ccc(OC)cc2)C(=O)O[C@H](C)C(=O)N2CCCC[C@H]2C(=O)N(C)[C@@H](C(C)C)C(=O)N[C@@H](C(C)C)C(=O)N(C)[C@@H](CC(=O)OC(C)(C)C)C(=O)N(C)[C@@H]([C@@H](C)CC)C(=O)N1C (cyclo(G[NMeV]Y(Me)[dLac][Pip][NMeV]V[NMeD](OtBu)[NMeI][NMeI]))
 |  | 14400 | CCN(CC)CCCC(C)Nc1c2ccc(Cl)cc2nc2ccc(OC)cc12 (stereo not drawn) [QUINACRINE]
